Measured values published in patent publication US4440770A, “Diuretic, hypotensive and antiedemic quinoline oximes” (Mochida Seiyaku Kabushiki Kaisha, priority 1980, dated 1984).

System: rats
Assay: Diuretic effect in rats
Type: in vivo, Wister strain male rats
Settings: Rattus norvegicus, po, 5 h, dosage 2.5 mg/kg, urine volume up to 5 hours, % of control
Method: Wister strain male rats weighing about 200 g were starved overnight and each compound of this invention suspended in 25 ml/kg of physiological saline were administered orally to the 5 animals in each group, and the diuretic effect up to 5 hours after the administration was measured. The diuretic effect is expressed as the average urine volume (%) of the treated group divided by that of the control group.

Row | Compound | response vs control in vivo at 2.5 mg/kg [%]
1 | CCC(=O)N1CCC(=NO)c2cc(Cl)ccc21 [Compound II, 6-Chloro-4-oximino-1-propionyl-1,2,3,4-tetrahydroquinoline] | 253
2 | COC(=O)N1CCC(=NO)c2cc(Cl)ccc21 [Compound X, 6-Chloro-4-oximino-1-methoxycarbonyl-1,2,3,4-tetrahydroquinoline] | 188
3 | CCC(=O)N1CCC(=NO)c2cc(F)ccc21 [Compound XV, 6-Fluoro-4-oximino-1-propionyl-1,2,3,4-tetrahydroquinoline] | 209
4 | COC(=O)N1CCC(=NO)c2cc(F)ccc21 [IX, 6-Fluoro-4-oximino-1-methoxycarbonyl-1,2,3,4-tetrahydroquinoline] | 251

Same assay, conditions: Rattus norvegicus, po, 5 h, dosage 5 mg/kg, urine volume up to 5 hours, % of control

Row | Compound | response vs control in vivo at 5 mg/kg [%]
5 | CC(=O)N1CCC(=NO)c2cc(Cl)ccc21 [Compound I, 6-Chloro-4-oximino-1-acetyl-1,2,3,4-tetrahydroquinoline] | 131
6 | CCC(=O)N1CCC(=NO)c2cc(Cl)ccc21 [Compound II, 6-Chloro-4-oximino-1-propionyl-1,2,3,4-tetrahydroquinoline] | 304
7 | CCCC(=O)N1CCC(=NO)c2cc(Cl)ccc21 [Compound III, 6-Chloro-4-oximino-1-butyryl-1,2,3,4-tetrahydroquinoline] | 122
8 | COC(=O)N1CCC(=NO)c2cc(Cl)ccc21 [Compound X, 6-Chloro-4-oximino-1-methoxycarbonyl-1,2,3,4-tetrahydroquinoline] | 306
9 | CCC(=O)N1CCC(=NO)c2cc(F)ccc21 [Compound XV, 6-Fluoro-4-oximino-1-propionyl-1,2,3,4-tetrahydroquinoline] | 347
10 | NS(=O)(=O)c1cc(C(=O)O)c(NCc2ccco2)cc1Cl [Furosemide, reference compound] | 133
11 | COC(=O)N1CCC(=NO)c2cc(F)ccc21 [IX, 6-Fluoro-4-oximino-1-methoxycarbonyl-1,2,3,4-tetrahydroquinoline] | 309
12 | CCC(=O)N1CCC(=NO)c2cc(Br)ccc21 [XVI, 6-Bromo-4-oximino-1-propionyl-1,2,3,4-tetrahydroquinoline] | 243

Same assay, conditions: Rattus norvegicus, po, 5 h, dosage 10 mg/kg, urine volume up to 5 hours, % of control

Row | Compound | response vs control in vivo at 10 mg/kg [%]
13 | CC(=O)N1CCC(=NO)c2cc(Cl)ccc21 [Compound I, 6-Chloro-4-oximino-1-acetyl-1,2,3,4-tetrahydroquinoline] | 186
14 | CCC(=O)N1CCC(=NO)c2cc(Cl)ccc21 [Compound II, 6-Chloro-4-oximino-1-propionyl-1,2,3,4-tetrahydroquinoline] | 410
15 | CCCC(=O)N1CCC(=NO)c2cc(Cl)ccc21 [Compound III, 6-Chloro-4-oximino-1-butyryl-1,2,3,4-tetrahydroquinoline] | 172
16 | COC(=O)N1CCC(=NO)c2cc(Cl)ccc21 [Compound X, 6-Chloro-4-oximino-1-methoxycarbonyl-1,2,3,4-tetrahydroquinoline] | 371
17 | COC(=O)N1CCC(=NO)c2cc(Br)ccc21 [Compound XI, 6-Bromo-4-oximino-1-methoxycarbonyl-1,2,3,4-tetrahydroquinoline] | 293
18 | CCOC(=O)N1CCC(=NO)c2cc(F)ccc21 [Compound XII, 6-Fluoro-4-oximino-1-ethoxycarbonyl-1,2,3,4-tetrahydroquinoline] | 180
19 | CCOC(=O)N1CCC(=NO)c2cc(Cl)ccc21 [Compound XIII, 6-Chloro-4-oximino-1-ethoxycarbonyl-1,2,3,4-tetrahydroquinoline] | 204
20 | CCC(=O)N1CCC(=NO)c2cc(F)ccc21 [Compound XV, 6-Fluoro-4-oximino-1-propionyl-1,2,3,4-tetrahydroquinoline] | 425
21 | COC(=O)N1CCC(=NO)c2cc(F)ccc21 [IX, 6-Fluoro-4-oximino-1-methoxycarbonyl-1,2,3,4-tetrahydroquinoline] | 408
22 | CCC(=O)N1CCC(=NO)c2cc(Br)ccc21 [XVI, 6-Bromo-4-oximino-1-propionyl-1,2,3,4-tetrahydroquinoline] | 380

Same assay, conditions: Rattus norvegicus, po, 5 h, dosage 20 mg/kg, urine volume up to 5 hours, % of control

Row | Compound | response vs control in vivo at 20 mg/kg [%]
23 | CC(=O)N1CCC(=NO)c2cc(Cl)ccc21 [Compound I, 6-Chloro-4-oximino-1-acetyl-1,2,3,4-tetrahydroquinoline] | 260
24 | CCCC(=O)N1CCC(=NO)c2cc(Cl)ccc21 [Compound III, 6-Chloro-4-oximino-1-butyryl-1,2,3,4-tetrahydroquinoline] | 240
25 | CCOC(=O)N1CCC(=NO)c2cc(F)ccc21 [Compound XII, 6-Fluoro-4-oximino-1-ethoxycarbonyl-1,2,3,4-tetrahydroquinoline] | 285
26 | CCOC(=O)N1CCC(=NO)c2cc(Cl)ccc21 [Compound XIII, 6-Chloro-4-oximino-1-ethoxycarbonyl-1,2,3,4-tetrahydroquinoline] | 310

Same assay, conditions: Rattus norvegicus, po, 5 h, dosage .5 mg/kg (so in the source), urine volume up to 5 hours, % of control

Row | Compound | response vs control in vivo at 0.5 mg/kg [%]
27 | COC(=O)N1CCC(=NO)c2cc(Br)ccc21 [Compound XI, 6-Bromo-4-oximino-1-methoxycarbonyl-1,2,3,4-tetrahydroquinoline] | 152

System: Carrageenin-Induced Foot Edema
Assay: Inhibition for carrageenin-induced foot edema in rats
Type: in vivo, Wister strain male rats
Settings: Rattus norvegicus, po, 1 hour before carrageenin, paw volume 3 hours after, probit method, read-out: ED30 (dosage for 30% inhibition of edema)
Method: 10 Wister strain male rats weighing about 120 g were used in each group. Each compound of this invention was suspended in a 5% aqueous arabic gum solution and administered orally to the animals. One hour after the administration, 0.1 ml of a 1% solution of carrageenin in physiological saline as a phlogistic agent was subcutaneously injected into the right hind paw of the rats which had been shaven previously. The volume of the right hind paw was measured before the administration of the phlogistic agent and 3 hours after the administration. The intensity of edema expressed as percent increase in the foot volume was calculated from the […] (1) and the percent inhibition of edema was calculated from the equation (2). [formula]
The effective dosage of each compound for inhibiting edema was expressed as ED30 (mg/kg) by calculating the dosage for 30% inhibition from the percent inhibition of edema according to the probit method.

Row | Compound | ED30 [mg/kg]
28 | CC(=O)N1CCC(=NO)c2cc(Cl)ccc21 [Compound I, 6-Chloro-4-oximino-1-acetyl-1,2,3,4-tetrahydroquinoline] | 39
29 | CCC(=O)N1CCC(=NO)c2cc(Cl)ccc21 [Compound II, 6-Chloro-4-oximino-1-propionyl-1,2,3,4-tetrahydroquinoline] | 8.8
30 | CCCC(=O)N1CCC(=NO)c2cc(Cl)ccc21 [Compound III, 6-Chloro-4-oximino-1-butyryl-1,2,3,4-tetrahydroquinoline] | 33
31 | COC(=O)N1CCC(=NO)c2cc(Cl)ccc21 [Compound X, 6-Chloro-4-oximino-1-methoxycarbonyl-1,2,3,4-tetrahydroquinoline] | 14
32 | COC(=O)N1CCC(=NO)c2cc(Br)ccc21 [Compound XI, 6-Bromo-4-oximino-1-methoxycarbonyl-1,2,3,4-tetrahydroquinoline] | 83
33 | CCOC(=O)N1CCC(=NO)c2cc(F)ccc21 [Compound XII, 6-Fluoro-4-oximino-1-ethoxycarbonyl-1,2,3,4-tetrahydroquinoline] | 86
34 | CCOC(=O)N1CCC(=NO)c2cc(Cl)ccc21 [Compound XIII, 6-Chloro-4-oximino-1-ethoxycarbonyl-1,2,3,4-tetrahydroquinoline] | 49
35 | CCC(=O)N1CCC(=NO)c2cc(F)ccc21 [Compound XV, 6-Fluoro-4-oximino-1-propionyl-1,2,3,4-tetrahydroquinoline] | 9.3
36 | COC(=O)N1CCC(=NO)c2cc(F)ccc21 [IX, 6-Fluoro-4-oximino-1-methoxycarbonyl-1,2,3,4-tetrahydroquinoline] | 22
37 | CCC(=O)N1CCC(=NO)c2cc(Br)ccc21 [XVI, 6-Bromo-4-oximino-1-propionyl-1,2,3,4-tetrahydroquinoline] | 16

System: not listed separately
Assay: Acute oral toxicity in mice
Settings: mouse, in vivo, mortality 7 days after administration
Method: 10 ddY Strain male mice weighing about 20 g were used in each group. Each compound of this invention was suspended in a 5% aqueous gum arabic solution and administered orally. The mortality rate (%) was determined from the number of dead animals 7 days after the administration, and the dosage corresponding to 50% mortality was calculated and expressed as LD50 (mg/kg).

Row | Compound | LD50 at 168 h [mg/kg]
38 | CC(=O)N1CCC(=NO)c2cc(Cl)ccc21 [Compound I, 6-Chloro-4-oximino-1-acetyl-1,2,3,4-tetrahydroquinoline] | > 5000
39 | CCC(=O)N1CCC(=NO)c2cc(Cl)ccc21 [Compound II, 6-Chloro-4-oximino-1-propionyl-1,2,3,4-tetrahydroquinoline] | 3490
40 | CCCC(=O)N1CCC(=NO)c2cc(Cl)ccc21 [Compound III, 6-Chloro-4-oximino-1-butyryl-1,2,3,4-tetrahydroquinoline] | > 5000
41 | COC(=O)N1CCC(=NO)c2cc(Cl)ccc21 [Compound X, 6-Chloro-4-oximino-1-methoxycarbonyl-1,2,3,4-tetrahydroquinoline] | 4470
42 | COC(=O)N1CCC(=NO)c2cc(Br)ccc21 [Compound XI, 6-Bromo-4-oximino-1-methoxycarbonyl-1,2,3,4-tetrahydroquinoline] | > 5000
43 | CCOC(=O)N1CCC(=NO)c2cc(F)ccc21 [Compound XII, 6-Fluoro-4-oximino-1-ethoxycarbonyl-1,2,3,4-tetrahydroquinoline] | > 5000
44 | CCOC(=O)N1CCC(=NO)c2cc(Cl)ccc21 [Compound XIII, 6-Chloro-4-oximino-1-ethoxycarbonyl-1,2,3,4-tetrahydroquinoline] | > 5000
45 | CCC(=O)N1CCC(=NO)c2cc(F)ccc21 [Compound XV, 6-Fluoro-4-oximino-1-propionyl-1,2,3,4-tetrahydroquinoline] | 3440
46 | COC(=O)N1CCC(=NO)c2cc(F)ccc21 [IX, 6-Fluoro-4-oximino-1-methoxycarbonyl-1,2,3,4-tetrahydroquinoline] | > 5000
47 | CCC(=O)N1CCC(=NO)c2cc(Br)ccc21 [XVI, 6-Bromo-4-oximino-1-propionyl-1,2,3,4-tetrahydroquinoline] | 4710

System: not listed separately
Assay: Properties of respective derivatives (solubility)
Type: physicochemical
Settings: ethanol and dichloromethane

Row | Compound | Solubility in ethanol and dichloromethane
48 | COC(=O)N1CCC(=NO)c2cc(Cl)ccc21 [Compound X, 6-Chloro-4-oximino-1-methoxycarbonyl-1,2,3,4-tetrahydroquinoline] | soluble
49 | COC(=O)N1CCC(=NO)c2cc(Br)ccc21 [Compound XI, 6-Bromo-4-oximino-1-methoxycarbonyl-1,2,3,4-tetrahydroquinoline] | soluble
50 | CCOC(=O)N1CCC(=NO)c2cc(F)ccc21 [Compound XII, 6-Fluoro-4-oximino-1-ethoxycarbonyl-1,2,3,4-tetrahydroquinoline] | soluble
51 | CCOC(=O)N1CCC(=NO)c2cc(Cl)ccc21 [Compound XIII, 6-Chloro-4-oximino-1-ethoxycarbonyl-1,2,3,4-tetrahydroquinoline] | soluble
52 | CCC(=O)N1CCC(=NO)c2cc(F)ccc21 [Compound XV, 6-Fluoro-4-oximino-1-propionyl-1,2,3,4-tetrahydroquinoline] | soluble
53 | COC(=O)N1CCC(=NO)c2cc(F)ccc21 [IX, 6-Fluoro-4-oximino-1-methoxycarbonyl-1,2,3,4-tetrahydroquinoline] | soluble
54 | CCC(=O)N1CCC(=NO)c2cc(Br)ccc21 [XVI, 6-Bromo-4-oximino-1-propionyl-1,2,3,4-tetrahydroquinoline] | soluble

Same assay, conditions: methanol, acetone and chloroform

Row | Compound | Solubility in methanol, acetone and chloroform
55 | CC(=O)N1CCC(=NO)c2cc(Cl)ccc21 [Compound I, 6-Chloro-4-oximino-1-acetyl-1,2,3,4-tetrahydroquinoline] | easily soluble
56 | CCC(=O)N1CCC(=NO)c2cc(Cl)ccc21 [Compound II, 6-Chloro-4-oximino-1-propionyl-1,2,3,4-tetrahydroquinoline] | easily soluble
57 | CCCC(=O)N1CCC(=NO)c2cc(Cl)ccc21 [Compound III, 6-Chloro-4-oximino-1-butyryl-1,2,3,4-tetrahydroquinoline] | easily soluble

Same assay, conditions: water and hexane

Row | Compound | Solubility in water and hexane
58 | CC(=O)N1CCC(=NO)c2cc(Cl)ccc21 [Compound I, 6-Chloro-4-oximino-1-acetyl-1,2,3,4-tetrahydroquinoline] | Sparingly soluble
59 | CCC(=O)N1CCC(=NO)c2cc(Cl)ccc21 [Compound II, 6-Chloro-4-oximino-1-propionyl-1,2,3,4-tetrahydroquinoline] | Sparingly soluble
60 | CCCC(=O)N1CCC(=NO)c2cc(Cl)ccc21 [Compound III, 6-Chloro-4-oximino-1-butyryl-1,2,3,4-tetrahydroquinoline] | Sparingly soluble
61 | COC(=O)N1CCC(=NO)c2cc(Cl)ccc21 [Compound X, 6-Chloro-4-oximino-1-methoxycarbonyl-1,2,3,4-tetrahydroquinoline] | Sparingly soluble
62 | COC(=O)N1CCC(=NO)c2cc(Br)ccc21 [Compound XI, 6-Bromo-4-oximino-1-methoxycarbonyl-1,2,3,4-tetrahydroquinoline] | Sparingly soluble
63 | CCOC(=O)N1CCC(=NO)c2cc(F)ccc21 [Compound XII, 6-Fluoro-4-oximino-1-ethoxycarbonyl-1,2,3,4-tetrahydroquinoline] | Sparingly soluble
64 | CCOC(=O)N1CCC(=NO)c2cc(Cl)ccc21 [Compound XIII, 6-Chloro-4-oximino-1-ethoxycarbonyl-1,2,3,4-tetrahydroquinoline] | Sparingly soluble
65 | CCC(=O)N1CCC(=NO)c2cc(F)ccc21 [Compound XV, 6-Fluoro-4-oximino-1-propionyl-1,2,3,4-tetrahydroquinoline] | Sparingly soluble
66 | COC(=O)N1CCC(=NO)c2cc(F)ccc21 [IX, 6-Fluoro-4-oximino-1-methoxycarbonyl-1,2,3,4-tetrahydroquinoline] | Sparingly soluble
67 | CCC(=O)N1CCC(=NO)c2cc(Br)ccc21 [XVI, 6-Bromo-4-oximino-1-propionyl-1,2,3,4-tetrahydroquinoline] | Sparingly soluble
